The values that follow come from patent US5750531A, “Pyrimidine derivatives and processes for the preparation thereof” (Yuhan Corporation, priority 1994, dated 1998).

The subject of assay [1] is gastric secretion. As to the kind of experiment: Inhibition of gastric secretion (pylorus ligation, Shay method). In kind it is in vivo, Male Sprague-Dawley rats. The conditions noted are these: 20 mg/kg intraduodenally, 5 hours; for Relative Acid Output: acid output relative to omeprazole; for Rel. Vol.: gastric juice volume relative to omeprazole; for Rel. Conc.: acid concentration relative to omeprazole. The protocol: Inhibition of gastric secretion […] Under ether anesthesia, the abdomen was incised, and the pylorus was ligated. […] After closing the abdominal cavity, the rats were placed for 5 hours and then killed by cervical dislocation. The stomach was extracted to obtain gastric juice. The gastric juice was centrifuged at 1,000 g to remove precipitates. The amount and acidity of the gastric juice were measured. Relative volumes, relative acid concentrations and relative acid outputs of the test compounds were calculated from equations(I), (II) and (III) and the results are shown in Table 2. […] Group 3) (II) […] (III)

Assay [2] addresses proton pump(H^+ /K^+ ATPase). As to the kind of experiment: Inhibition of proton pump(H^+ /K^+ ATPase) activity. The note with it: pH 6.0, 37° C., 30 minutes preincubation and 30 minutes reaction; read-out: IC50 Test compound. The assay is classed as biochemical. The method, then: Test 1: Inhibition of proton pump(H^+ /K^+ ATPase) activity
A proton pump enzyme source was prepared by the same method as in Experiment 1-1 of WO 94/14795. Further, the inhibitory effect of proton pump activity was measured by the same method as in Experiment 1-2 of WO 94/14795.
Namely, the proton pump activity stimulated by Mg^++ was used as a negative comparative group, and the activity stimulated by Mg^++ and K^+ was used as a positive comparative group. The comparative compound was omeprazole.
Test tubes were divided into 4 groups: Group 1 as negative comparative group(n=3), Group 2 as positive comparative group(n=3), Group 3(n=5×2) to be administered with the compound of the present invention and Group 4(n=5×2) to be administered with the comparative compound.
The inhibitory effects of Groups 3 and 4 on proton pump activity were measured by employing the compound prepared in Example and omeperazole, respectively, each of which was dissolved in dimethylsulfoxide at 5 different concentrations.
To each of Groups 1, 2, 3 and 4 were added 100 μl of magnesium chloride(40 mM) dissolved in 40 mM Tris-HCl buffer(pH 6.0) and 100μ of the enzyme source. Then, 50μ of potassium chloride(50 mM) and 50 μl of ammonium chloride(6 mM) dissolved in 40 mM Tris-HCl buffer(pH 6.0) were added to all groups except for Group 1.
10 μl of dimethylsulfoxide was added to each of Groups 1 and 2; and to Group 3 was added 10 μl of the solution in which the compound prepared in Example was dissolved in dimethylsulfoxide at 5 different concentrations(n=5×2). To Group 4, 10 μl of the solution prepared by dissolving omeprazole in dimethylsulfoxide at 5 different concentrations(37.6, 21.4, 12.2, 7.0 and 4.0 μM) was added(n=5×2). 40 mM Tris-HCl buffer(pH=6.0) was added thereto so as to make the total volume 400 μl.
Thereafter, the test tubes of each Group were placed at 37° C. for 30 minutes for the preincubation. 100 μl of ATP solution (6.6 mM) was added until the reaction volume became 500 μl. After the reaction was carried out at 37° C. for 30 minutes, 25% cold trichloroacetic acid was added to terminate the enzyme reaction. The released inorganic phosphate was measured by an automatic analyzer(Express 550, Corning).
The difference between Group 1 and Group 2 represents the proton pump activity activated by K^+ only. The inhibition percentages of Groups 3 and 4 were calculated from Litchfield-wilcoxon equation[see, e.g., J. pharmacol. Exp. Ther., 96, 99(1949)]. The concentrations of the test compounds which inhibit 50% of the proton pump activity are represented as IC50 in Table 1.

A word on the IC50: it is the concentration at which inhibition is half-maximal. As for `Cc1cc(F)ccc1Nc1nccc(N2CCc3ccccc3C2C)n1.Cl` (stereo not drawn) [Example 1, 2-(2-methyl-4-fluorophenylamino)-4-(1-methyl-1,2,3,4-tetrahydroisoquinolin-2-yl)pyrimidine hydrochloride], in assay [1], the “Relative Acid Output” value came to 0.11 and the Rel. Vol. is 0.12. Moreover, the IC50 in assay [2] stood at 5.4 µM.

Take `Cc1cc(N2CCc3ccccc3C2C)nc(Nc2ccc(F)cc2C)n1.Cl` (stereo not drawn) [Example 2, 6-methyl-2-(2-methyl-4-fluorophenylamino)-4-(1-methyl-1,2,3,4-tetrahydroisoquinolin-2-yl)pyrimidine hydrochloride]: in assay [1], the Rel. Conc. is 0.8, the “Relative Acid Output” value turned out to be 0.89 and the Rel. Vol. was 0.92. For the same compound, the half-maximal inhibitory concentration (IC50) in assay [2] stood at 0.9 µM.

On to `Cc1cc(N2CCc3ccccc3C2C)nc(Nc2ccc(F)cc2)n1.Cl` (stereo not drawn) [Example 3, 6-methyl-4-(1-methyl-1,2,3,4-tetrahydroisoquinolin-2-yl)-2-(4-fluorophenylamino)pyrimidine hydrochloride], for which, in assay [1], the Rel. Conc. stood at 0.81, the “Relative Acid Output” value turned out to be 0.87 and the Rel. Vol. was 0.76. Besides, the IC50 in assay [2] came out at 3.5 µM.

Turning to `Cc1cc(N2CCc3ccccc3C2C)nc(N(C)c2ccccc2)n1.Cl` (stereo not drawn) [Example 4, 6-methyl-2-(N-methylphenylamino)-4-(1-methyl-1,2,3,4-tetrahydroisoquinolin-2-yl)pyrimidine hydrochloride], in assay [1], the Rel. Conc. is 0.56, the “Relative Acid Output” value stood at 0.87 and the Rel. Vol. was 0.99.

For the compound `CCc1cc(N2CCc3ccccc3C2C)nc(Nc2ccc(F)cc2C)n1.Cl` (stereo not drawn) [Example 5, 6-ethyl-2-(2-methyl-4-fluorophenylamino)-4-(1-methyl-1,2,3,4-tetrahydroisoquinolin-2-yl)pyrimidine hydrochloride], in assay [1], the Rel. Conc. came to 0.27, the “Relative Acid Output” value was 0.61 and the Rel. Vol. was 0.59. Also, the concentration for half-maximal inhibition (IC50) in assay [2] was 1.3 µM.

With `CCc1cc(N2CCc3ccccc3C2C)nc(Nc2ccc(F)cc2)n1.Cl` (stereo not drawn) [Example 6, 6-ethyl-2-(4-fluorophenylamino)-4-(1-methyl-1,2,3,4-tetrahydroisoquinolin-2-yl)pyrimidine hydrochloride], in assay [1], the Rel. Conc. was 0.28, the “Relative Acid Output” value is recorded as 0.64 and the Rel. Vol. was determined as 0.64. Besides, the IC50 in assay [2] came to 4.3 µM.

As for `CCc1cc(N2CCc3ccccc3C2C)nc(N(C)c2ccccc2)n1.Cl` (stereo not drawn) [Example 7, 6-ethyl-2-(N-methylphenylamino)-4-(1-methyl-1,2,3,4-tetrahydroisoquinolin-2-yl)pyrimidine hydrochloride], in assay [1], the Rel. Conc. is 0.09, the “Relative Acid Output” value came out at 0.48 and the Rel. Vol. is 0.51.

Take `CCc1cc(N2CCc3ccccc3C2C)nc(Nc2ccccc2C)n1.Cl` (stereo not drawn) [Example 8, 6-ethyl-2-(2-methylphenylamino)-4-(1-methyl-1,2,3,4-tetrahydroisoquinolin-2-yl)pyrimidine hydrochloride]: in assay [1], the Rel. Conc. worked out at 0.12, the “Relative Acid Output” value is listed as 0.42 and the Rel. Vol. came to 0.43. In addition, the IC50 in assay [2] is approximately 12.5 µM.

As for `CCCc1cc(N2CCc3ccccc3C2C)nc(Nc2ccc(F)cc2C)n1.Cl` (stereo not drawn) [Example 9, 2-(2-methyl-4-fluorophenylamino)-4-(1-methyl-1,2,3,4-tetrahydroisoquinolin-2-yl)-6-propylpyrimidine hydrochloride], in assay [1], the “Relative Acid Output” value is on record as 0.3 and the Rel. Vol. amounted to 0.4. Besides, the 50% inhibitory concentration (IC50) in assay [2] is approximately 10 µM.

`CCCc1cc(N2CCc3ccccc3C2C)nc(N(C)c2ccccc2)n1.Cl` (stereo not drawn) [Example 11, 2-(N-methylphenylamino)-4-(1-methyl-1,2,3,4-tetrahydroisoquinolin-2-yl)-6-propylpyrimidine hydrochloride]: in assay [1], the Rel. Conc. is 0.41, the “Relative Acid Output” value amounted to 0.82 and the Rel. Vol. stood at 0.99.

As to `CC1c2ccccc2CCN1c1nc(N(C)c2ccccc2)nc2c1CCCC2.Cl` (stereo not drawn) [Example 33, 2-(N-methylphenylamino)-4-(1-methyl-1,2,3,4-tetrahydroisoquinoline-2-yl)-5,6,7,8-tetrahydroquinazoline hydrochloride], in assay [1], the Rel. Conc. is 1.13, the “Relative Acid Output” value is 0.94 and the Rel. Vol. was 0.93.

In the case of `Cc1cc(N2CCc3ccccc3C2)nc(N(C)c2ccccc2)n1.Cl` [Example 36, 6-methyl-2-(N-methylphenylamino)-4-(1,2,3,4-tetrahydroisoquinolin-2-yl)pyrimidine hydrochloride], in assay [1], the Rel. Conc. is 0.05, the “Relative Acid Output” value was 0.41 and the Rel. Vol. turned out to be 0.65.

Consider `CCc1nc(Nc2ccc(F)cc2C)nc(N2CCc3ccsc3C2C)c1C.Cl` (stereo not drawn) [Example 56, 5-methyl-2-(2-methyl-4-fluorophenylamino)-4-(7-methyl-4,5,6,7-tetrahydrothieno[2,3-c]pyridin-6-yl)-6-ethylpyrimidine hydrochloride], for which, in assay [1], the Rel. Conc. was 0.08, the “Relative Acid Output” value came to 0.08 and the Rel. Vol. was determined as 0.01.

Turning to `Cc1nc(N2CCc3ccccc3C2C)nc(N(C)c2ccccc2)c1C.Cl` (stereo not drawn) [Example 71, 5,6-dimethyl-4-(N-methylphenylamino)-2-(1-methyl-1,2,3,4-tetrahydroisoquinolin-2-yl)pyrimidine hydrochloride], in assay [1], the “Relative Acid Output” value is recorded as 0.16 and the Rel. Vol. turned out to be 0.25.

Turning to `Cc1nc(N2CCc3ccccc3[C@H]2C)nc(N(C)c2ccccc2)c1C.Cl` [Example 72, (R)-5,6-dimethyl-4-(N-methylphenylamino)-2-(1-methyl-1,2,3,4-tetrahydroisoquinolin-2-yl)pyrimidine hydrochloride], in assay [1], the Rel. Conc. amounted to 0.16, the “Relative Acid Output” value amounted to 0.25 and the Rel. Vol. was determined as 0.34.

With `Cc1nc(N2CCc3ccccc3[C@@H]2C)nc(N(C)c2ccccc2)c1C.Cl` [Example 73, (S)-5,6-dimethyl-4-(N-methylphenylamino)-2-(1-methyl-1,2,3,4-tetrahydroisoquinolin-2-yl)pyrimidine hydrochloride], in assay [1], the “Relative Acid Output” value was determined as 0.13 and the Rel. Vol. worked out at 0.18.

Consider `Cc1nc(N2CCc3ccccc3C2)nc(N(C)c2ccccc2)c1C.Cl` [Example 76, 5,6-dimethyl-4-(N-methylphenylamino)-2-(1,2,3,4-tetrahydroisoquinolin-2-yl)pyrimidine hydrochloride], for which, in assay [1], the Rel. Conc. stood at 0.17, the “Relative Acid Output” value turned out to be 0.33 and the Rel. Vol. came out at 0.28.

Take `Cc1nc(N2CCc3ccsc3C2C)nc(N(C)c2ccccc2)c1C.Cl` (stereo not drawn) [Example 79, 5,6-dimethyl-4-(N-methylphenylamino)-2-(7-methyl-4,5,6,7-tetrahydrothieno[2,3-c]pyridin-6-yl)pyrimidine hydrochloride]: in assay [1], the Rel. Conc. worked out at 1.28, the “Relative Acid Output” value came to 0.49 and the Rel. Vol. came out at 0.54.

Turning to `CCc1nc(N2CCc3ccccc3C2C)nc(Nc2ccc(F)cc2C)c1C.Cl` (stereo not drawn) [Example 80, 5-methyl-6-ethyl-4-(2-methyl-4-fluorophenylamino)-2-(1-methyl-1,2,3,4-tetrahydroisoquinolin-2-yl)pyrimidine hydrochloride], in assay [1], the Rel. Conc. came to 0.29, the “Relative Acid Output” value turned out to be 0.44 and the Rel. Vol. was found to be 0.32.
